Values of other authors in PMC8513935.
Each block holds one compound with its values, some of them ahead of it.

Experiments:
[1] = log P octanol/water from commercial databases, averaged (the ESI); conditions: Octanol (wet), 25 C
[2] = experimental, compiled by the authors from the literature (the ESI cites the sources)
[3] = derived by the authors as gas->solvent minus gas->water (a hypothetical dry solvent; the ESI), not a two-phase measurement

log K of transfer, water to solvent [1]: 4.56 log10 K | log K of transfer, gas to solvent ([2]; 1,2-Dichloroethane, 25 C): 3.57 log10 K | log K of transfer, gas to solvent ([2]; Acetonitrile, 25 C): 2.87 log10 K | log K of transfer, gas to solvent ([2]; Butan-1-ol, 25 C): 3.44 log10 K | log K of transfer, gas to solvent ([2]; Butanone, 25 C): 3.53 log10 K | log K of transfer, gas to solvent ([2]; Butyronitrile, 25 C): 3.35 log10 K | log K of transfer, gas to solvent ([2]; CCl4, 25 C): 4.08 log10 K | log K of transfer, gas to solvent ([2]; Chlorobenzene, 25 C): 4.06 log10 K | log K of transfer, gas to solvent ([2]; Chloroform, 25 C): 3.99 log10 K | log K of transfer, gas to solvent ([2]; Cyclohexanone, 25 C): 3.55 log10 K | log K of transfer, gas to solvent ([2]; Dichloromethane, 25 C): 3.82 log10 K | log K of transfer, gas to solvent ([2]; Ethanol, 25 C): 3.27 log10 K | log K of transfer, gas to solvent ([2]; Hexadecane, 25 C): 3.88 log10 K | log K of transfer, gas to solvent ([2]; Hexane, 25 C): 3.97 log10 K | log K of transfer, gas to solvent ([2]; Methanol, 25 C): 2.96 log10 K | log K of transfer, gas to solvent ([2]; Perfluoroalkane, 25 C): 2.56 log10 K | log K of transfer, gas to solvent ([2]; Propan-1-ol, 25 C): 3.28 log10 K | log K of transfer, gas to solvent ([2]; Propan-2-ol, 25 C): 3.27 log10 K | log K of transfer, gas to solvent ([2]; Propanone, 25 C): 3.32 log10 K | log K of transfer, gas to solvent ([2]; Propionitrile, 25 C): 3.17 log10 K | log K of transfer, gas to solvent ([2]; Tetrahydrofuran, 25 C): 3.92 log10 K | log K of transfer, gas to solvent ([2]; Water, 25 C): -1.58 log10 K | log K of transfer, water to solvent ([3]; 1,2-Dichloroethane, 25 C): 5.15 log10 K | log K of transfer, water to solvent ([3]; Acetone, 25 C): 4.9 log10 K | log K of transfer, water to solvent ([3]; Acetonitrile, 25 C): 4.45 log10 K | log K of transfer, water to solvent ([3]; Butan-1-ol, 25 C): 5.02 log10 K | log K of transfer, water to solvent ([3]; Butanone, 25 C): 5.11 log10 K | log K of transfer, water to solvent ([3]; Butyronitrile, 25 C): 4.93 log10 K | log K of transfer, water to solvent ([3]; CCl4, 25 C): 5.66 log10 K | log K of transfer, water to solvent ([3]; Chlorobenzene, 25 C): 5.64 log10 K | log K of transfer, water to solvent ([3]; Chloroform, 25 C): 5.57 log10 K | log K of transfer, water to solvent ([3]; Cyclohexanone, 25 C): 5.13 log10 K | log K of transfer, water to solvent ([3]; Dichloromethane, 25 C): 5.4 log10 K | log K of transfer, water to solvent ([3]; Ethanol, 25 C): 4.84 log10 K | log K of transfer, water to solvent ([3]; Hexadecane, 25 C): 5.45 log10 K | log K of transfer, water to solvent ([3]; Hexane, 25 C): 5.55 log10 K | log K of transfer, water to solvent ([3]; Methanol, 25 C): 4.54 log10 K | log K of transfer, water to solvent ([3]; Perfluoroalkane, 25 C): 4.14 log10 K | log K of transfer, water to solvent ([3]; Propan-1-ol, 25 C): 4.86 log10 K | log K of transfer, water to solvent ([3]; Propan-2-ol, 25 C): 4.85 log10 K | log K of transfer, water to solvent ([3]; Propionitrile, 25 C): 4.75 log10 K | log K of transfer, water to solvent ([3]; Tetrahydrofuran, 25 C): 5.5 log10 K
SMILES: CCC1CCCCC1

log K of transfer, water to solvent [1]: 3.07 log10 K | log K of transfer, gas to solvent ([2]; Benzene, 25 C): 5.91 log10 K | log K of transfer, gas to solvent ([2]; Butanone, 25 C): 6.01 log10 K | log K of transfer, gas to solvent ([2]; Butyronitrile, 25 C): 5.69 log10 K | log K of transfer, gas to solvent ([2]; CCl4, 25 C): 5.09 log10 K | log K of transfer, gas to solvent ([2]; Hexadecane, 25 C): 4.62 log10 K | log K of transfer, gas to solvent ([2]; Hexan-1-ol, 25 C): 6.29 log10 K | log K of transfer, gas to solvent ([2]; Methanol, 25 C): 5.89 log10 K | log K of transfer, gas to solvent ([2]; Octan-1-ol, 25 C): 6.03 log10 K | log K of transfer, gas to solvent ([2]; Water, 25 C): 3 log10 K | log K of transfer, water to solvent ([3]; Benzene, 25 C): 2.91 log10 K | log K of transfer, water to solvent ([3]; Butanone, 25 C): 3.01 log10 K | log K of transfer, water to solvent ([3]; Butyronitrile, 25 C): 2.69 log10 K | log K of transfer, water to solvent ([3]; CCl4, 25 C): 2.09 log10 K | log K of transfer, water to solvent ([3]; Hexadecane, 25 C): 1.62 log10 K | log K of transfer, water to solvent ([3]; Hexan-1-ol, 25 C): 3.29 log10 K | log K of transfer, water to solvent ([3]; Methanol, 25 C): 2.89 log10 K | log K of transfer, water to solvent ([3]; Octan-1-ol(dry), 25 C): 3.03 log10 K
SMILES: CCCCCCCCO

log K of transfer, water to solvent [1]: 5.65 log10 K | log K of transfer, gas to solvent ([2]; 1,2-Dichloroethane, 25 C): 3.89 log10 K | log K of transfer, gas to solvent ([2]; Acetonitrile, 25 C): 3 log10 K | log K of transfer, gas to solvent ([2]; Butanone, 25 C): 3.9 log10 K | log K of transfer, gas to solvent ([2]; Butyronitrile, 25 C): 3.63 log10 K | log K of transfer, gas to solvent ([2]; CCl4, 25 C): 4.55 log10 K | log K of transfer, gas to solvent ([2]; Chlorobenzene, 25 C): 4.52 log10 K | log K of transfer, gas to solvent ([2]; Chloroform, 25 C): 4.42 log10 K | log K of transfer, gas to solvent ([2]; Cyclohexanone, 25 C): 3.84 log10 K | log K of transfer, gas to solvent ([2]; Dichloromethane, 25 C): 4.21 log10 K | log K of transfer, gas to solvent ([2]; Ethanol, 25 C): 3.52 log10 K | log K of transfer, gas to solvent ([2]; Hexadecane, 25 C): 4.18 log10 K | log K of transfer, gas to solvent ([2]; Hexane, 25 C): 4.51 log10 K | log K of transfer, gas to solvent ([2]; Methanol, 25 C): 3.23 log10 K | log K of transfer, gas to solvent ([2]; Perfluoroalkane, 25 C): 2.87 log10 K | log K of transfer, gas to solvent ([2]; Propan-1-ol, 25 C): 3.55 log10 K | log K of transfer, gas to solvent ([2]; Propan-2-ol, 25 C): 3.63 log10 K | log K of transfer, gas to solvent ([2]; Propanone, 25 C): 3.66 log10 K | log K of transfer, gas to solvent ([2]; Propionitrile, 25 C): 3.42 log10 K | log K of transfer, gas to solvent ([2]; Tetrahydrofuran, 25 C): 4.34 log10 K | log K of transfer, gas to solvent ([2]; Toluene, 25 C): 4.34 log10 K | log K of transfer, gas to solvent ([2]; Water, 25 C): -2.15 log10 K | log K of transfer, water to solvent ([3]; 1,2-Dichloroethane, 25 C): 6.04 log10 K | log K of transfer, water to solvent ([3]; Acetone, 25 C): 5.81 log10 K | log K of transfer, water to solvent ([3]; Acetonitrile, 25 C): 5.15 log10 K | log K of transfer, water to solvent ([3]; Butanone, 25 C): 6.05 log10 K | log K of transfer, water to solvent ([3]; Butyronitrile, 25 C): 5.78 log10 K | log K of transfer, water to solvent ([3]; CCl4, 25 C): 6.7 log10 K | log K of transfer, water to solvent ([3]; Chlorobenzene, 25 C): 6.67 log10 K | log K of transfer, water to solvent ([3]; Chloroform, 25 C): 6.57 log10 K | log K of transfer, water to solvent ([3]; Cyclohexanone, 25 C): 5.99 log10 K | log K of transfer, water to solvent ([3]; Dichloromethane, 25 C): 6.36 log10 K | log K of transfer, water to solvent ([3]; Ethanol, 25 C): 5.67 log10 K | log K of transfer, water to solvent ([3]; Hexadecane, 25 C): 6.33 log10 K | log K of transfer, water to solvent ([3]; Hexane, 25 C): 6.66 log10 K | log K of transfer, water to solvent ([3]; Methanol, 25 C): 5.38 log10 K | log K of transfer, water to solvent ([3]; Perfluoroalkane, 25 C): 5.02 log10 K | log K of transfer, water to solvent ([3]; Propan-1-ol, 25 C): 5.7 log10 K | log K of transfer, water to solvent ([3]; Propan-2-ol, 25 C): 5.78 log10 K | log K of transfer, water to solvent ([3]; Propionitrile, 25 C): 5.57 log10 K | log K of transfer, water to solvent ([3]; Tetrahydrofuran, 25 C): 6.49 log10 K | log K of transfer, water to solvent ([3]; Toluene, 25 C): 6.49 log10 K
SMILES: CCCCCCCCC

log K of transfer, water to solvent [1]: 0.97 log10 K | log K of transfer, gas to solvent ([2]; 1,2-Dichloroethane, 25 C): 3.29 log10 K | log K of transfer, gas to solvent ([2]; Benzene, 25 C): 3.17 log10 K | log K of transfer, gas to solvent ([2]; CCl4, 25 C): 3.15 log10 K | log K of transfer, gas to solvent ([2]; Chlorobenzene, 25 C): 3.06 log10 K | log K of transfer, gas to solvent ([2]; Chloroform, 25 C): 3.86 log10 K | log K of transfer, gas to solvent ([2]; Cyclohexane, 25 C): 2.62 log10 K | log K of transfer, gas to solvent ([2]; Di-n-butyl ether, 25 C): 2.68 log10 K | log K of transfer, gas to solvent ([2]; Hexadecane, 25 C): 2.62 log10 K | log K of transfer, gas to solvent ([2]; Octan-1-ol, 25 C): 3.61 log10 K | log K of transfer, gas to solvent ([2]; Toluene, 25 C): 3.25 log10 K | log K of transfer, gas to solvent ([2]; Water, 25 C): 3.11 log10 K | log K of transfer, water to solvent ([3]; 1,2-Dichloroethane, 25 C): 0.18 log10 K | log K of transfer, water to solvent ([3]; Benzene, 25 C): 0.06 log10 K | log K of transfer, water to solvent ([3]; CCl4, 25 C): 0.04 log10 K | log K of transfer, water to solvent ([3]; Chlorobenzene, 25 C): -0.05 log10 K | log K of transfer, water to solvent ([3]; Chloroform, 25 C): 0.75 log10 K | log K of transfer, water to solvent ([3]; Cyclohexane, 25 C): -0.488 log10 K | log K of transfer, water to solvent ([3]; Di-n-butyl ether, 25 C): -0.43 log10 K | log K of transfer, water to solvent ([3]; Hexadecane, 25 C): -0.492 log10 K | log K of transfer, water to solvent ([3]; Octan-1-ol(dry), 25 C): 0.5 log10 K | log K of transfer, water to solvent ([3]; Toluene, 25 C): 0.14 log10 K
SMILES: CCCCN

log K of transfer, water to solvent [1]: 2.04 log10 K | log K of transfer, gas to solvent ([2]; Di-n-butyl ether, 25 C): 4.12 log10 K | log K of transfer, gas to solvent ([2]; Hexadecane, 25 C): 3.7 log10 K | log K of transfer, gas to solvent ([2]; Methanol, 25 C): 4.23 log10 K | log K of transfer, gas to solvent ([2]; Water, 25 C): 2.25 log10 K | log K of transfer, water to solvent ([3]; Di-n-butyl ether, 25 C): 1.87 log10 K | log K of transfer, water to solvent ([3]; Hexadecane, 25 C): 1.45 log10 K | log K of transfer, water to solvent ([3]; Methanol, 25 C): 1.98 log10 K
SMILES: CCCC(=O)CCC

SMILES: C/C=C/C
log K of transfer, water to solvent [1]: 2.31 log10 K | log K of transfer, gas to solvent ([2]; Hexadecane, 25 C): 1.66 log10 K | log K of transfer, gas to solvent ([2]; Propanone, 25 C): 1.81 log10 K | log K of transfer, gas to solvent ([2]; Water, 25 C): -0.98 log10 K | log K of transfer, water to solvent ([3]; Acetone, 25 C): 2.79 log10 K | log K of transfer, water to solvent ([3]; Hexadecane, 25 C): 2.64 log10 K

SMILES: O=C1CCCCC1
log K of transfer, water to solvent [1]: 0.81 log10 K | log K of transfer, gas to solvent ([2]; 1,2-Dichloroethane, 25 C): 4.97 log10 K | log K of transfer, gas to solvent ([2]; CCl4, 25 C): 4.57 log10 K | log K of transfer, gas to solvent ([2]; Cyclohexanone, 25 C): 4.65 log10 K | log K of transfer, gas to solvent ([2]; Hexadecane, 25 C): 3.79 log10 K | log K of transfer, gas to solvent ([2]; Hexane, 25 C): 3.65 log10 K | log K of transfer, gas to solvent ([2]; Water, 25 C): 3.6 log10 K | log K of transfer, water to solvent ([3]; 1,2-Dichloroethane, 25 C): 1.37 log10 K | log K of transfer, water to solvent ([3]; CCl4, 25 C): 0.97 log10 K | log K of transfer, water to solvent ([3]; Cyclohexanone, 25 C): 1.05 log10 K | log K of transfer, water to solvent ([3]; Hexadecane, 25 C): 0.192 log10 K | log K of transfer, water to solvent ([3]; Hexane, 25 C): 0.05 log10 K
